Experimental findings from ChEMBL document CHEMBL3091451, “Function-regulating pharmacophores in a sulfonamide class of glucocorticoid receptor agonists” (Bioorg Med Chem Lett, 2013) are described below.

The structures appear in SMILES notation.

For experiment [1], the target named is T1, Mineralocorticoid receptor (Homo sapiens, UniProt P08235).
T1 sequence (P08235 whole entry): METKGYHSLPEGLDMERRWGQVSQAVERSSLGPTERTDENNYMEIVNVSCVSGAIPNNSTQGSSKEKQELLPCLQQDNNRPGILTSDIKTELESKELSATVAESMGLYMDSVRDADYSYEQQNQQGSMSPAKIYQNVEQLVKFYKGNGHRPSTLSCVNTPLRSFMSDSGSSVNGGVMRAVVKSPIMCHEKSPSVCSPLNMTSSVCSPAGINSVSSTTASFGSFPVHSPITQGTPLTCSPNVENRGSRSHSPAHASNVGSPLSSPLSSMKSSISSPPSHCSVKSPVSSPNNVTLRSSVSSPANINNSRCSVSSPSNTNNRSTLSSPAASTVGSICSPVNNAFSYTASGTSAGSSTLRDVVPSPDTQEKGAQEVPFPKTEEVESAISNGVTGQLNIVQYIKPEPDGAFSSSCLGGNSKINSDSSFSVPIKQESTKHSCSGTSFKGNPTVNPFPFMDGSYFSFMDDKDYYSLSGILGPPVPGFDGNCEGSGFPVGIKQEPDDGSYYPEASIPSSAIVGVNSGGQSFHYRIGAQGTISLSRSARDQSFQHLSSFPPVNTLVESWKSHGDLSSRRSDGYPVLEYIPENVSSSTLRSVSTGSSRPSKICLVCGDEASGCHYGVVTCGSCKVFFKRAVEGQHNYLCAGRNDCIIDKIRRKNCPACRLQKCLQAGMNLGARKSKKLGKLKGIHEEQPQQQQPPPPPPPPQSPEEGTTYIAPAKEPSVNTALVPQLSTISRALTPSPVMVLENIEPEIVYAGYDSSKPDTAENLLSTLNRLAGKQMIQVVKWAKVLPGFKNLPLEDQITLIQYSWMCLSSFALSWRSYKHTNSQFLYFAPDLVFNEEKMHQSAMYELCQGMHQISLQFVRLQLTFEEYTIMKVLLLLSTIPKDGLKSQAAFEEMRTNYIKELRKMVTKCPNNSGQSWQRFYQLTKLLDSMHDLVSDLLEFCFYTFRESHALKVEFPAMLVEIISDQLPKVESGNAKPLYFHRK
Nature of the experiment: Binding affinity to mineralocorticoid receptor (unknown origin) by fluorescence polarization competitive binding assay. (Fluorescence polarisation rises when a labelled molecule tumbles more slowly, as on binding a larger partner.)

Experiment [2] concerns the target T2, Progesterone receptor (Homo sapiens, UniProt P06401).
T2 sequence (P06401 whole entry): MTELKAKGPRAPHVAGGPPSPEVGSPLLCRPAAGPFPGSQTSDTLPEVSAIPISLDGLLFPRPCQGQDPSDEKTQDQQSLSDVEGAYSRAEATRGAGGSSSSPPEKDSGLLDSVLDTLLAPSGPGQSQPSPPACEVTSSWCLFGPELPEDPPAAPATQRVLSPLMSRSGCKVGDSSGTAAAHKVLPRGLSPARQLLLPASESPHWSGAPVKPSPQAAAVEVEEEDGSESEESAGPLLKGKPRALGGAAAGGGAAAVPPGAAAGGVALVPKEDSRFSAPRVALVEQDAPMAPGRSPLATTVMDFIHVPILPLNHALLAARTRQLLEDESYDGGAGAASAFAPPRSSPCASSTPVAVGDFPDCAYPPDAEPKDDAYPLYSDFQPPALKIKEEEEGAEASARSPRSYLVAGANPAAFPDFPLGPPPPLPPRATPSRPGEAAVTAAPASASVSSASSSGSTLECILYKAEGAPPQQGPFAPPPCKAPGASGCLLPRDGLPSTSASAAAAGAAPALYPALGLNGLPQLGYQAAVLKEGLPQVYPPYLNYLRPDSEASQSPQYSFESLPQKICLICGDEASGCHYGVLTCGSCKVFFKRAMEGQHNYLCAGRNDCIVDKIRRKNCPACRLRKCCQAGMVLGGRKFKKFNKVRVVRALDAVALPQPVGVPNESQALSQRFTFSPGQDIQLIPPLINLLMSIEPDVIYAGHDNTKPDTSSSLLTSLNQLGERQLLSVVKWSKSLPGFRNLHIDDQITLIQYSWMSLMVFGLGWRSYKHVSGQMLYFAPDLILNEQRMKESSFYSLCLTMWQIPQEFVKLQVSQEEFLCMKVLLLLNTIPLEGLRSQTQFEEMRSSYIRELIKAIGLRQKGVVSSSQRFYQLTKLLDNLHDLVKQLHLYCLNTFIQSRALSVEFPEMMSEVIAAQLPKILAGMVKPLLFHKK
Briefly: Displacement of TAMRA-labeled mifepristone from progesterone receptor (unknown origin) by fluorescence polarization competitive binding assay.

In experiment [3] the target is T3, Glucocorticoid receptor (Homo sapiens, UniProt P04150).
T3 sequence (P04150 whole entry): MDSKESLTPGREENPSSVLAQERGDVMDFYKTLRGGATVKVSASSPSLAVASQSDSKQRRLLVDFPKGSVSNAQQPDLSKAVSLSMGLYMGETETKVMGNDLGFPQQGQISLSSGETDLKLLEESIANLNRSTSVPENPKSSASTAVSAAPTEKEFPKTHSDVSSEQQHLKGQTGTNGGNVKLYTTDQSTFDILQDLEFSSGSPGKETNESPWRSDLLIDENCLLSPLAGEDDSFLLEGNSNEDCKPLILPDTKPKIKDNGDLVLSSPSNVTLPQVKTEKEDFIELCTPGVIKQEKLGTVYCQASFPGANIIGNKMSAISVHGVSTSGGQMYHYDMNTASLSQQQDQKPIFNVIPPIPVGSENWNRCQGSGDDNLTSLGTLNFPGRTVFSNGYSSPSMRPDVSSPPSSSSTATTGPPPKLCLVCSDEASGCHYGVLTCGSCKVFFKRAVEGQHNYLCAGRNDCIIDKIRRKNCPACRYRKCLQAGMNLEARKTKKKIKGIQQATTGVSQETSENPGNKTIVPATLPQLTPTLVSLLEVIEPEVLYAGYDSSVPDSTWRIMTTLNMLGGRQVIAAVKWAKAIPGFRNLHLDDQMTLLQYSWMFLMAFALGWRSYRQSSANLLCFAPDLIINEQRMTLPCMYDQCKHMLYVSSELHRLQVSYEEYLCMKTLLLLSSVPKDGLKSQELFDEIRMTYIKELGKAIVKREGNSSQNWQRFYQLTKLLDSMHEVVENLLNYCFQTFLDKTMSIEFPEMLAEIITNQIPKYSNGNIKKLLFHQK
Briefly: Displacement of TAMRA-labeled dexamethasone from glucocorticoid receptor (unknown origin) by fluorescence polarization competitive binding assay.

For experiment [4], the target named is T3, Glucocorticoid receptor. Briefly: Agonist activity at glucocorticoid receptor in HFF assessed as inhibition of IL-1-induced IL-6 production after 24 hrs.
The species entered for experiment [5] is Homo sapiens. Nature of the experiment: Selectivity ratio of IC50 for mineralocorticoid receptor (unknown origin) to IC50 for glucocorticoid receptor (unknown origin).

What is called IC50 is the concentration needed to halve the response being measured. For `Cc1cc(C)c(S(=O)(=O)NC(Cn2ccc3c(C#N)cccc32)C(F)(F)F)c(C)c1` (configuration not stated), the IC50 in experiment [1] is 100 nM; in experiment [2] it was 700 nM; in experiment [3], 60 nM; in experiment [4], over 10000 nM.
Taken in the same sequence, the figures for `CC(C)(Cc1c[nH]c2ccccc12)NS(=O)(=O)c1c(N)cc(Cl)cc1Cl` were 470 nM, 5300 nM, 15 nM and over 2000 nM.
As to `Cc1cc(C)c(S(=O)(=O)NC(Cc2c[nH]c3c(C)cccc23)C(F)(F)F)c(C)c1` (configuration not stated), the Ratio IC50 in experiment [5] turned out to be 1. In addition, the IC50 in experiment [1] is 90 nM; in experiment [2], 5900 nM; in experiment [3] it was 20 nM; in experiment [4] it was over 10000 nM.
For the molecule `Cc1cc(C)c(S(=O)(=O)NC(CSc2ccccc2)C(F)(F)F)c(C)c1` (configuration not stated), the IC50 in experiment [1] was 280 nM; in experiment [2], 2000 nM; in experiment [3] it was 20 nM; in experiment [4], over 10000 nM.
Regarding `Cc1cc(C)c(S(=O)(=O)NC(Cc2c[nH]c3cc(C)ccc23)C(F)(F)F)c(C)c1` (configuration not stated), in experiment [5], the Ratio IC50 came to 1. The IC50 in experiment [1] is 140 nM; in experiment [2], over 2000 nM; in experiment [3] it was 37 nM; in experiment [4], over 2000 nM.
Take `CC(Cc1c[nH]c2ccccc12)NS(=O)(=O)c1c(N)cc(Cl)cc1Cl` (configuration not stated): the Ratio IC50 in experiment [5] was found to be 102. Also, the IC50 is 510 nM in experiment [1], over 2000 nM in experiment [2], 5 nM in experiment [3] and 120 nM in experiment [4].
Turning to `Cc1cc(C)c(S(=O)(=O)NC(Cc2c[nH]c3c(C#N)cc(C)cc23)C(F)(F)F)c(C)c1` (configuration not stated), the Ratio IC50 in experiment [5] was 22. Besides, the IC50 in experiment [1] was determined as 110 nM; in experiment [2], 750 nM; in experiment [3] it was 5 nM; in experiment [4] it was 15 nM.
With `Cc1cc(C)c(S(=O)(=O)NC(Cc2c[nH]c3cccc(C#N)c23)C(F)(F)F)c(C)c1` (configuration not stated), the IC50 is 170 nM in experiment [1], over 10000 nM in experiment [2] and over 10000 nM in experiment [3].
As for `Cc1cc(C)c(S(=O)(=O)N[C@@H](C)Cc2c[nH]c3ccccc23)c(C)c1`, the IC50 in experiment [1] was 290 nM; in experiment [2], 1400 nM; in experiment [3] it was 40 nM; in experiment [4], over 2000 nM.
Take `Cc1cc(C)c(S(=O)(=O)NC(Cc2c[nH]c3cc(C#N)ccc23)C(F)(F)F)c(C)c1` (configuration not stated): the Ratio IC50 in experiment [5] worked out at 1. For the same molecule, the IC50 was 280 nM in experiment [1], 2000 nM in experiment [2], 280 nM in experiment [3] and over 10000 nM in experiment [4].
With `Cc1cc(C)c(S(=O)(=O)NC(Cc2c[nH]c3c(C#N)cccc23)C(F)(F)F)c(C)c1` (configuration not stated), in experiment [5], the Ratio IC50 was 1. The IC50 is 70 nM in experiment [1], 540 nM in experiment [2], 10 nM in experiment [3] and 45 nM in experiment [4].
With `Cc1cc(C)c(S(=O)(=O)NC(COc2ccccc2)C(F)(F)F)c(C)c1` (configuration not stated), the IC50 was 340 nM in experiment [1], 6400 nM in experiment [2], 210 nM in experiment [3] and over 10000 nM in experiment [4].
Take `O=S(=O)(NC(Cc1c[nH]c2ccccc12)C(F)(F)F)c1c(Cl)cc(Cl)cc1Cl` (configuration not stated): the IC50 in experiment [1] is 80 nM; in experiment [2], 3500 nM; in experiment [3] it was 35 nM; in experiment [4], over 2000 nM.
On to `CC(Cc1c[nH]c2ccccc12)NS(=O)(=O)c1c(Cl)cc(Cl)cc1Cl` (configuration not stated), for which the IC50 in experiment [4] is over 2000 nM.
With `Cc1cc(C)c(S(=O)(=O)NC(Cc2c[nH]c3ccc(C#N)cc23)C(F)(F)F)c(C)c1` (configuration not stated), the Ratio IC50 in experiment [5] was 1. Further, the IC50 in experiment [1] is 210 nM; in experiment [2] it was over 10000 nM; in experiment [3], 320 nM; in experiment [4], over 10000 nM.
Regarding `Cc1cc(C)c(S(=O)(=O)NC(Cc2c[nH]c3ccc(C)cc23)C(F)(F)F)c(C)c1` (configuration not stated), the Ratio IC50 in experiment [5] was 1. Further, the IC50 came to 90 nM in experiment [1], 6000 nM in experiment [2], 10 nM in experiment [3] and 210 nM in experiment [4].
With `Cc1cc(C)c(S(=O)(=O)NC(Cc2c[nH]c3ccccc23)C(F)(F)F)c(C)c1` (configuration not stated), the IC50 in experiment [1] is 80 nM; in experiment [2] it was 3600 nM; in experiment [3], 15 nM; in experiment [4], over 2000 nM.
Taken in the same sequence, the figures for `Cc1cc(C)c(S(=O)(=O)NC(Cn2ccc3ccccc32)C(F)(F)F)c(C)c1` (configuration not stated) were 120 nM, 2400 nM, 25 nM and over 10000 nM.
Turning to `Cc1cc(C)c(S(=O)(=O)NC(Cc2c[nH]c3cccc(C)c23)C(F)(F)F)c(C)c1` (configuration not stated), in experiment [5], the Ratio IC50 is 1. The IC50 in experiment [1] was 80 nM; in experiment [2], over 2000 nM; in experiment [3], 18 nM; in experiment [4], over 2000 nM.
As to `Cc1cc(C)c(S(=O)(=O)NC(CNc2ccccc2)C(F)(F)F)c(C)c1` (configuration not stated), the IC50 is 260 nM in experiment [1], 3200 nM in experiment [2], 95 nM in experiment [3] and over 10000 nM in experiment [4].
In the same order, the values of `Cc1cc(C)c(S(=O)(=O)NC(Cn2cc(C#N)c3ccccc32)C(F)(F)F)c(C)c1` (configuration not stated) are 65 nM, 530 nM, 15 nM and over 2000 nM.
Taken in the same sequence, the figures for `Nc1cc(Cl)cc(Cl)c1S(=O)(=O)NC(Cc1c[nH]c2ccccc12)C(F)(F)F` (configuration not stated) were 270 nM, over 2000 nM, 10 nM and 56 nM.
In the same order, the values of `Cc1cc(C)c(S(=O)(=O)NC(Cn2ccc3ncccc32)C(F)(F)F)c(C)c1` (configuration not stated) are 220 nM, over 10000 nM, 340 nM and over 2000 nM.
